Here are results for 5 compounds from patent publication US10357493B2, “Metalloenzyme inhibitor compounds” (Selenity Therapeutics (Bermuda), Ltd., priority 2017, dated 2019).

As a reminder, the IC50 is the concentration that inhibits the measured activity by half.

Where two headings read alike, the source gives them in different places.

Assay type in all cases: biochemical
One assay has as its target HDAC4 (Homo sapiens (Human), UniProt P56524). Description: HDAC4 enzymatic assay. To be noted: selectivity profile; read-out: HDAC Enzyme IC50, HDAC 4. Here is the method:
(§1) All enzymatic reactions were conducted in duplicate at room temperature for 17 hours in a 50 μl mixture containing HDAC assay buffer (50 mM Tris-HCl, pH 7.4, 137 mM NaCl, 2.7 mM KCl, 0.05% Tween 20, 5 μg BSA), an HDAC substrate, an HDAC enzyme, and a test compound. Compound dilution was prepared ten-fold higher than the final concentration of the compounds with 10% DMSO in HDAC assay buffer and 5 μl of the dilution was added to a 50 μl reaction so that the final concentration of DMSO is 1% in all of reactions. After enzymatic reactions, 50 μl of HDAC Developer was added to each well and the plate was incubated at room temperature for an additional 20 minutes. Fluorescence intensity was measured at an excitation of 360 nm and an emission of 460 nm using a Tecan Infinite M1000 or Biotek Synergy microplate reader.
(§2) The fluorescent intensity data were analyzed using the computer software, Graphpad Prism. In the absence of the compound, the fluorescent intensity (Ft) in each data set was defined as 100% activity. In the absence of HDAC, the fluorescent intensity (Fb) in each data set was defined as 0% activity. The percent activity in the presence of each compound was calculated according to the following equation: % activity=(F−Fb)/(Ft−Fb), where F=the fluorescent intensity in the presence of the compound.
(§3) The values of % activity versus a series of compound concentrations were then plotted using non-linear regression analysis of Sigmoidal dose-response curve generated with the equation Y=B+(T−B)/1+10((Log EC50−X)×Hill Slope), where Y=percent activity, B=minimum percent activity, T=maximum percent activity, X=logarithm of compound and Hill Slope=slope factor or Hill coefficient. The IC50 value was determined by the concentration causing a half-maximal percent activity.
(§4) HDAC1 enzymatic assays contained 0.5 ng HDAC1 and 10 uM of HDAC substrate. HDAC2 enzymatic assays contained 0.5 ng HDAC2 and 10 uM of HDAC substrate. HDAC3 enzymatic assays contained 0.4 ng HDAC3/NCOR2 and 10 uM of HDAC substrate. HDAC4 enzymatic assays contained 0.02 ng HDAC4 and 2 uM of HDAC substrate. HDAC5 enzymatic assays contained 0.5 ng HDAC5 and 2 uM of HDAC substrate. HDAC6 enzymatic assays contained 2 ng HDAC6 and 10 uM of HDAC substrate. HDAC7 enzymatic assays contained 0.05 ng HDAC7 and 2 uM of HDAC substrate. HDAC8 enzymatic assays contained 5 ng HDAC8 and 2 uM of HDAC substrate. HDAC9 enzymatic assays contained 1 ng HDAC9 and 2 uM of HDAC substrate. HDAC10 enzymatic assays contained 75 ng HDAC10 and 10 uM of HDAC substrate. HDAC11 enzymatic assays contained 5 ng HDAC11 and 2 uM of HDAC substrate.

The target of the next assay is HDAC2 (Homo sapiens (Human), UniProt Q92769). Briefly: HDAC2 enzymatic assay. Particulars: selectivity profile; read-out: HDAC Enzyme IC50, HDAC 2. Here is the method:
as §1, §2, §3, §4

Another assay concerns the target HDAC7 (Homo sapiens (Human), UniProt Q8WUI4). Description: HDAC7 enzymatic assay. Particulars: selectivity profile; read-out: HDAC Enzyme IC50, HDAC 7. Here is the method:
as §1, §2, §3, §4

In another assay the target is HDAC6 (Homo sapiens (Human), UniProt Q9UBN7). Briefly: HDAC6 enzymatic assay. The gist of the method: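 Following a 17 hour room-temperature incubation of 2 ng HDAC6 with 10 uM substrate and compound, 50 μl developer was added for another 20 minutes, and fluorescence (excitation 360 nm, emission 460 nm) was recorded. Activity was normalized to no-compound (100%) and no-enzyme (0%) wells, and IC50 came from sigmoidal dose-response fitting in Graphpad Prism.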
HDAC6, sequence (Q9UBN7 whole entry): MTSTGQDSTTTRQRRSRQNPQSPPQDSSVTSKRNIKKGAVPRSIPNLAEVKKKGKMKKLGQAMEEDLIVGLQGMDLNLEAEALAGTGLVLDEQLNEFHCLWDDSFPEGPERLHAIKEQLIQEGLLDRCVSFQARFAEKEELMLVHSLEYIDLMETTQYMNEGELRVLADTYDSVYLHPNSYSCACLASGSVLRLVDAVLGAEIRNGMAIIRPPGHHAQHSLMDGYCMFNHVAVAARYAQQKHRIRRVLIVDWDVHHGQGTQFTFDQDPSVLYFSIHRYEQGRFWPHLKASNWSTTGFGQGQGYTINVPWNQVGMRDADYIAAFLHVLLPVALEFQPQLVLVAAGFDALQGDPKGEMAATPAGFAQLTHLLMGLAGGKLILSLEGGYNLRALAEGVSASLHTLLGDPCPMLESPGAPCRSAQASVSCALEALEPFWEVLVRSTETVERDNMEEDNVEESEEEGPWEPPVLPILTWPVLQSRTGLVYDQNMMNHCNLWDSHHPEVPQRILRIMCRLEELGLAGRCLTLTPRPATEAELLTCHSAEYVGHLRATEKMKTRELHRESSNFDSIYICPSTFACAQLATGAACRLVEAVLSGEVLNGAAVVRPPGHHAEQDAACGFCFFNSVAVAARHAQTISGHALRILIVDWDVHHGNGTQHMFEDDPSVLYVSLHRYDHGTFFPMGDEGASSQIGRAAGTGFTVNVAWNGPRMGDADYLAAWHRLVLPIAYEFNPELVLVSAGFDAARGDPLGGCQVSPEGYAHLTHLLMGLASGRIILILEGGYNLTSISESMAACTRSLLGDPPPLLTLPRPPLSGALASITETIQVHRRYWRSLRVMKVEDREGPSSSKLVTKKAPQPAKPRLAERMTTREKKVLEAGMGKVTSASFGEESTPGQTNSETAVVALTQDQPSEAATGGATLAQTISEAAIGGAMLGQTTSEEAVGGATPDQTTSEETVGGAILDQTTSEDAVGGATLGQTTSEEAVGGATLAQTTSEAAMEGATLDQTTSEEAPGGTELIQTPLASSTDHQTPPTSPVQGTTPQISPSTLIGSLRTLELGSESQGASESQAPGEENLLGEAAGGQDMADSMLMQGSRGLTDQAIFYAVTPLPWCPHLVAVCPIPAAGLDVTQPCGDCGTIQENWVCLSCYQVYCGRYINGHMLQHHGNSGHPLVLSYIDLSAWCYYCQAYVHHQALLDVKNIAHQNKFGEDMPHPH

For the next assay, the target named is HDAC1 (Homo sapiens (Human), UniProt Q13547). Description: HDAC1 enzymatic assay. The gist of the method: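 Compound inhibition of human HDAC1 (0.5 ng enzyme, 10 uM substrate) was assessed by fluorescence after developer treatment, excitation 360 nm and emission 460 nm. Percent activity was normalized to no-compound (100%) and no-enzyme (0%) controls, plotted against concentration, and fitted to a sigmoidal dose-response curve in Graphpad Prism to obtain IC50 at half-maximal activity.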

The next assay deals with HDAC9 (Homo sapiens (Human), UniProt Q9UKV0). Briefly: HDAC9 enzymatic assay. To be noted: selectivity profile; read-out: HDAC Enzyme IC50, HDAC 9. The protocol: as §1, §2, §3, §4
HDAC9, sequence (Q9UKV0 whole entry, species assumed): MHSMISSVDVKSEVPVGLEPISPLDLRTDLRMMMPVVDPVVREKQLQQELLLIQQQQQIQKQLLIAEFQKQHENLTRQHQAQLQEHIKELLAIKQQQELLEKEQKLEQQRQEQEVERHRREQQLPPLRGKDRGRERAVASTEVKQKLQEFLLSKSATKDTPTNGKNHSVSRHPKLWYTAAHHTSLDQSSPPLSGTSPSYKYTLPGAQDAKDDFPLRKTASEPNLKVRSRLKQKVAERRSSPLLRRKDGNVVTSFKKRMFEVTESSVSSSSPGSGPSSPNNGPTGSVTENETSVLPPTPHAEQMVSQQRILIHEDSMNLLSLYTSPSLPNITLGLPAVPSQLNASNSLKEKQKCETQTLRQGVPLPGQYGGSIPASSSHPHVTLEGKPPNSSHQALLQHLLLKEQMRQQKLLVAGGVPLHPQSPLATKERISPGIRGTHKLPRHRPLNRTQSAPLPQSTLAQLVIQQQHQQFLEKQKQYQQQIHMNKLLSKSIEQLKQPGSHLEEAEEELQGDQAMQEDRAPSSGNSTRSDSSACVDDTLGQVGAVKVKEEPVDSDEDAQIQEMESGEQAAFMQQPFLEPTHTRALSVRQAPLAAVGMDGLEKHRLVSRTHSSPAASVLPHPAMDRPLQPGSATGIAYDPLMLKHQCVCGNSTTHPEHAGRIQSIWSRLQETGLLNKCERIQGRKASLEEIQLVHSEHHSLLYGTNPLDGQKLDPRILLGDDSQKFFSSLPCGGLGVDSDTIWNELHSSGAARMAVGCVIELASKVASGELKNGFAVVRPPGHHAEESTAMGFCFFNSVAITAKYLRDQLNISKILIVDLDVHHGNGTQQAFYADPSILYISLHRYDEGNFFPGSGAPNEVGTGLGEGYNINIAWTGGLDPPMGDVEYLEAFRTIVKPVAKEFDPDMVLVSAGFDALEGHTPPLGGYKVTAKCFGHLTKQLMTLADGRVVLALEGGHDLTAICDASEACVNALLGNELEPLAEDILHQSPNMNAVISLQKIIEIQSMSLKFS
Another assay concerns the target HDAC10 (Homo sapiens (Human), UniProt Q969S8). Description: HDAC10 enzymatic assay. Particulars: selectivity profile; read-out: HDAC Enzyme IC50, HDAC 10. Here is the method:
as §1, §2, §3, §4

In another assay the target is HDAC8 (Homo sapiens (Human), UniProt Q9BY41). Briefly: HDAC8 enzymatic assay. Particulars: selectivity profile; read-out: HDAC Enzyme IC50, HDAC 8. The protocol:
as §1, §2, §3, §4

The next assay deals with HDAC11 (Homo sapiens (Human), UniProt Q96DB2). Briefly: HDAC11 enzymatic assay. Particulars: selectivity profile; read-out: HDAC Enzyme IC50, HDAC 11. Here is the method: as §1, §2, §3, §4
The next assay addresses HDAC5 (Homo sapiens (Human), UniProt Q9UQL6). Description: HDAC5 enzymatic assay. To be noted: selectivity profile; read-out: HDAC Enzyme IC50, HDAC 5. The protocol:
as §1, §2, §3, §4

In another assay the target is HDAC3/NCOR2 (Homo sapiens (Human), UniProt O15379). Description: HDAC3 enzymatic assay. To be noted: selectivity profile; read-out: HDAC Enzyme IC50, HDAC 3. Here is the method: as §1, §2, §3, §4
[1] abbreviates: selectivity profile, read-out: HDAC Enzyme IC50, HDAC 6.
The mark [2] stands for this setting: selectivity profile, read-out: HDAC Enzyme IC50, HDAC 1.

HDAC5, sequence (Q9UQL6 whole entry, species assumed): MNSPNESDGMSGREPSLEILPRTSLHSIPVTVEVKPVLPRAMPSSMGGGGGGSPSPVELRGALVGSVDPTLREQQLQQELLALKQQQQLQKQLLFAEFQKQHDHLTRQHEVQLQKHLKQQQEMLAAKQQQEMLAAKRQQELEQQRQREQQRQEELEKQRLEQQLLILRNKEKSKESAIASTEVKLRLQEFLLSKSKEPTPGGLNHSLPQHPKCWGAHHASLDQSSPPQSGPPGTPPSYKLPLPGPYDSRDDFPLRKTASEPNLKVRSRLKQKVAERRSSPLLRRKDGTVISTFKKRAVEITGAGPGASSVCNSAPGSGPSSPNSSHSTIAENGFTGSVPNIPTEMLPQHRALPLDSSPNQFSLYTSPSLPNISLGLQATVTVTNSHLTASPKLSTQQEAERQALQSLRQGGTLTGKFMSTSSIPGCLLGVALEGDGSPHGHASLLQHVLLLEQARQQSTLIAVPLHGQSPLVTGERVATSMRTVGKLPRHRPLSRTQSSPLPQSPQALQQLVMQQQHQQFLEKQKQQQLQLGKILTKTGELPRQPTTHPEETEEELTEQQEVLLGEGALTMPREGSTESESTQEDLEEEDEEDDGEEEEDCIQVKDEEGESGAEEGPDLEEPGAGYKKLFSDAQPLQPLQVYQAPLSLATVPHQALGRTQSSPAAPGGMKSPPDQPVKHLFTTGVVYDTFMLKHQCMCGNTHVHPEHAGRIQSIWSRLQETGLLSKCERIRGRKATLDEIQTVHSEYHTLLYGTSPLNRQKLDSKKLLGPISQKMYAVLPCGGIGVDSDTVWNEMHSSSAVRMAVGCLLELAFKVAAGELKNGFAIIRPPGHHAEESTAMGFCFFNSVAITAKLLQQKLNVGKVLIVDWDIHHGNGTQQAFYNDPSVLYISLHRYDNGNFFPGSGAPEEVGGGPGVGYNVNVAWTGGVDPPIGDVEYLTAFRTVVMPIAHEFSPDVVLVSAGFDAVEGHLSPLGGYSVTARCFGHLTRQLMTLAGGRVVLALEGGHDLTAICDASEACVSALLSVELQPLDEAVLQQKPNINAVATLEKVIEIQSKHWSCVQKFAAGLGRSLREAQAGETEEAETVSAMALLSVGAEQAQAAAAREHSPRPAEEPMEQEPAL
HDAC10, sequence (Q969S8 whole entry, species assumed): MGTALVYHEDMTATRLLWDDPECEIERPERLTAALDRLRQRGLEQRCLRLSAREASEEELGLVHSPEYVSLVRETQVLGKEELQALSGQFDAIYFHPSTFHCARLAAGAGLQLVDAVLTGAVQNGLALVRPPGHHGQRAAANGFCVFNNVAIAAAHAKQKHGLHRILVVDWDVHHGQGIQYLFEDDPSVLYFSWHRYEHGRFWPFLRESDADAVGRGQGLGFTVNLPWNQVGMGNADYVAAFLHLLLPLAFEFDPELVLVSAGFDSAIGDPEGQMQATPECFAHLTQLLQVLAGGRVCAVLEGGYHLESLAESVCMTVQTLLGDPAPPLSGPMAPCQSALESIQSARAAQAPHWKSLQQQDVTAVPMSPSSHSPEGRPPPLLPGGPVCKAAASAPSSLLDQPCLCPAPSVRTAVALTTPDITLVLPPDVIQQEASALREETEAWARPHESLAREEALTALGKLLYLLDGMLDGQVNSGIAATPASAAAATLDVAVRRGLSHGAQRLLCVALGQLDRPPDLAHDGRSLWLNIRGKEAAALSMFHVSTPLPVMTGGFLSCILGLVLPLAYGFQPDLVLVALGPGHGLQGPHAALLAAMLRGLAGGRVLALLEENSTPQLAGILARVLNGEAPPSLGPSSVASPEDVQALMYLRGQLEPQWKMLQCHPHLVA
HDAC7, sequence (Q8WUI4 whole entry): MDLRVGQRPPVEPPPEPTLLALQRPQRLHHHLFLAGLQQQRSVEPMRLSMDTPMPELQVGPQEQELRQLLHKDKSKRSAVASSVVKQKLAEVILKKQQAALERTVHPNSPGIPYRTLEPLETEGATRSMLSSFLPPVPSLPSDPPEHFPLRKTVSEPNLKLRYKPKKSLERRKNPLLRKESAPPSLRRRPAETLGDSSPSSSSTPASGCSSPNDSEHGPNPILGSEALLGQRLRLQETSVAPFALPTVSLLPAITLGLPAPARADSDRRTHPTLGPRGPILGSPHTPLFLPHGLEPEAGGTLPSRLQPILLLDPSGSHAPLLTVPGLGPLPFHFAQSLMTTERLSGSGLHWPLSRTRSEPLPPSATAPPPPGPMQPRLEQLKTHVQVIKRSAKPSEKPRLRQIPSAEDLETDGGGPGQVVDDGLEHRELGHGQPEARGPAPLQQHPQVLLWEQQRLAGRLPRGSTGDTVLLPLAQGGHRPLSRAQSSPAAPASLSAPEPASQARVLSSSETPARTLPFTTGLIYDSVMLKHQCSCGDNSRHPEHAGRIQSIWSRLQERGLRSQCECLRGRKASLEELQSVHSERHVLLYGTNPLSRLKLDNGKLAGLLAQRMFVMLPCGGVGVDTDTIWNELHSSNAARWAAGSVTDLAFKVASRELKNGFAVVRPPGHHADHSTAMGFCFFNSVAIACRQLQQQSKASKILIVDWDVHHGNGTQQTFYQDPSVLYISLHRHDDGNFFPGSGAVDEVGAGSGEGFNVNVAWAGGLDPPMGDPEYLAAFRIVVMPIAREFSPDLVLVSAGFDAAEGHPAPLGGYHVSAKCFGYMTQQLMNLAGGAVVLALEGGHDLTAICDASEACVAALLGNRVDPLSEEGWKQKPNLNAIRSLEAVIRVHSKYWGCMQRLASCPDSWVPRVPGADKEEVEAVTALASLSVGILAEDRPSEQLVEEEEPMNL

As for `CC(C)(Nc1ncc(-c2nnc(C(F)F)o2)cn1)c1ccc(F)cc1` [Example 9, 5-(5-(difluoromethyl)-1,3,4-oxadiazol-2-yl)-N-(2-(4-fluorophenyl)propan-2-yl)pyrimidin-2-amine], the IC50 was > 30 µM on HDAC4; > 30 µM on HDAC2; > 30 µM at HDAC7; 0.038 µM on HDAC6 (read-out: Human HDAC6 IC50); 0.038 µM at HDAC6 (setting [1]); > 30 µM at HDAC1 (read-out: Human HDAC1 IC50). Moreover, the IC50 on HDAC1 (setting [2]), at HDAC9, at HDAC10, on HDAC8, on HDAC11 and on HDAC5 was > 30 µM each time. Also, at HDAC3/NCOR2, the IC50 is > 30 µM.

Take `FC(F)c1nnc(-c2cnc(NC3(c4ccccc4)CC3)nc2)o1` [Example 4, 5-(5-(difluoromethyl)-1,3,4-oxadiazol-2-yl)-N-(1-phenylcyclopropyl)pyrimidin-2-amine]: the IC50 at HDAC4 is > 30 µM; on HDAC2, > 30 µM; on HDAC7 it was > 30 µM; on HDAC6 (read-out: Human HDAC6 IC50), 0.023 µM; on HDAC6 (setting [1]), 0.023 µM; on HDAC1 (read-out: Human HDAC1 IC50), > 30 µM. In addition, the IC50 at HDAC1 (setting [2]), on HDAC9, on HDAC10, at HDAC8, at HDAC11 and on HDAC5 was > 30 µM throughout. The IC50 at HDAC3/NCOR2 is > 30 µM.

With `CS(=O)(=O)CC(Nc1ncc(-c2nnc(C(F)F)o2)cn1)c1ccc(F)cc1` (single isomer, unassigned) [161(+), 5-(5-(difluoromethyl)-1,3,4-oxadiazol-2-yl)-N-(1-(4-fluorophenyl)-2-(methylsulfonyl)ethyl)pyrimidin-2-amine], the IC50 on HDAC4 was > 30 µM; at HDAC2, > 30 µM; at HDAC7 it was > 30 µM; at HDAC6 (read-out: Human HDAC6 IC50), 0.043 µM; at HDAC6 (setting [1]), 0.043 µM; at HDAC1 (read-out: Human HDAC1 IC50) it was > 30 µM. The IC50 on HDAC1 (setting [2]), on HDAC9, on HDAC10, at HDAC8, at HDAC11 and at HDAC5 was > 30 µM in each case. Besides, the IC50 on HDAC3/NCOR2 is > 30 µM.

As for `C[C@@H](Nc1ncc(-c2nnc(C(F)F)o2)cn1)c1ccc(F)cc1F` [Example 99-R, 5-[5-(difluoromethyl)-1,3,4-oxadiazol-2-yl]-N-[(1R)-1-(2,4-difluorophenyl)ethyl]pyrimidin-2-amine], the IC50 was > 30 µM at HDAC4; > 30 µM on HDAC2; > 30 µM on HDAC7; 0.028 µM at HDAC6 (read-out: Human HDAC6 IC50); 0.028 µM at HDAC6 (setting [1]); > 30 µM at HDAC1 (read-out: Human HDAC1 IC50). The IC50 on HDAC1 (setting [2]), on HDAC9, on HDAC10, on HDAC8, at HDAC11 and on HDAC5 was > 30 µM in each case. The IC50 on HDAC3/NCOR2 was > 30 µM.

`O=C(NCC(Nc1ncc(-c2nnc(C(F)F)o2)cn1)c1ccc(F)cc1)C1CC1` (single isomer, unassigned) [168(+), N-(2-((5-(5-(difluoromethyl)-1,3,4-oxadiazol-2-yl)pyrimidin-2-yl)amino)-2-(4-fluorophenyl)ethyl)cyclopropanecarboxamide]: the IC50 on HDAC4 was 13.8 µM; at HDAC2 it was > 30 µM; on HDAC7, 24.4 µM; on HDAC6 (read-out: Human HDAC6 IC50) it was 0.029 µM; on HDAC6 (setting [1]), 0.029 µM; at HDAC1 (read-out: Human HDAC1 IC50) it was > 30 µM. Further, the IC50 on HDAC1 (setting [2]), on HDAC9, at HDAC10, on HDAC8, at HDAC11 and at HDAC5 was > 30 µM in each case. For the same compound, the IC50 on HDAC3/NCOR2 is > 30 µM.
